Reference: patent US20180369166A1, “GARCINOL COMPOSITIONS FOR THERAPEUTIC MANAGEMENT OF ENDOPLASMIC RETICULUM STRESS” (priority 2017, published 2018)

Legend:
HepG2 Cells = experiment: Alcohol induced toxicity in HepG2 cells (SRB assay); format: cell-based, human; conditions: 10 μg/ml; 1000 mM Ethanol for 72 hours; FIG. 6
Protocol: (§1) HepG2—human liver cell line, primary mouse hepatocytes. Min6—Mouse pancreatic beta cell line, 3T3 L1—mouse preadipocytes wee used for the experiments. Cells were maintained in DMEM containing 25 mM glucose with 10% heat-inactivated fetal calf serum with antibiotics at 37° C. and 5% CO2. When the cells were 70-80% confluent, they were trypsinized, washed and seeded in 96 well plates at a density of 5×10^3 cells per well. Stress was induced by Thapsigargin(1 uM) for 4 hours, glucose (50 and 100 mM) and alcohol (1000 mM) or paracetamol (4 mM) for 72 hours. Garcinol was added along with stressor as prophylactic treatment. As a therapeutic treatment, cells were exposed to stress agent 24 hours following which Garcinol was added to the cells. Protection was assessed by SRB assay after 72 hours of treatment
For evaluating alcohol induced toxicity, HepG2 Cells were exposed to 1000 mM of Ethanol for 72 hours in the presence of different concentrations of Garcinol and protection was assessed by SRB assay. Garcinol conferred hepatoprotection against alcohol induced toxicity by 47% at concentration of 10 μg/ml (FIG. 6).

[1] = system: Human Liver cell line (HepG2); experiment: Thapsigargin induced protein aggregation in human liver cells (thioflavin staining, flow cytometry); format: cell-based; conditions: 10 μg/ml, 1 μM Thapsigargin, FIGS. 7a and 7b
Protocol: as §1
IRE1α phosophorylation levels can be assessed by measuring spliced. XBP-1 product by RT PCR. PERK activation is measured by its phosphorylation levels or by measuring the ATF4 mRNA levels. Activation of ATF4 leads to increased transcription of a network of genes, including those encoding ER chaperones, such as BiP/GRP78.
Effect of Garcinol on Thapsigargin induced ER stress in human liver cells was also evaluated. […] Treated and untreated cells were analysed by Flow cytometry and RT PCR.

[2] = system: primary mouse hepatocytes; experiment: Thapsigargin induced protein aggregation in primary mouse hepatocytes (thioflavin staining); format: cell-based; conditions: 10 μg/ml; 1 μM Thapsigargin; FIG. 7c

C=C(C)[C@@H](CC=C(C)C)C[C@@]12C[C@@H](CC=C(C)C)C(C)(C)[C@@](CC=C(C)C)(C(=O)C(C(=O)c3ccc(O)c(O)c3)=C1O)C2=O [Garcinol]
hepatoprotection against alcohol induced toxicity (HepG2 Cells): 47%
reduction in protein aggregation in human liver cells [1]: 44.4%
reduction in protein aggregation in primary mouse hepatocytes [2]: 70.4%
